Earlier results as cited in patent US20070281011A1, “Nanoparticulate posaconazole formulations” (Elan Pharma International Ltd., priority 2006, published 2007).

What was measured:
[1] = test system: cytochrome P450 14a-demethylase (P45014DM); conditions: particularly in Aspergillus
[2] = meal containing fat calories; regardless of formulation (tablet versus suspension)

For `CC[C@@H]([C@H](C)O)n1ncn(-c2ccc(N3CCN(c4ccc(OC[C@@H]5CO[C@@](Cn6cncn6)(c6ccc(F)cc6F)C5)cc4)CC3)cc2)c1=O` [Posaconazole], the “inhibition of sterol C14 demethylation compared to itraconazole” value [1] is given as “significantly more potent inhibitor”, the “increase of relative oral bioavailability” value [2] is given as “approximately 400%” and the aqueous solubility is given as < 1 µg/mL.
